In PubChem BioAssay (NCI):
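Grown in 96-well plates, cells were treated for 48 hours with each compound at five concentrations. Insufficient inhibition: endpoint recorded as highest concentration tested. Definition used: TGI = concentration required for complete inhibition of growth.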 Where a SMILES comes first, the peptide text is derived from it. The star is where a group is joined. Boc = CC(C)(C)OC(=O)*

Legend:
Assay in all cases: NCI tumour cell line growth inhibition, 48 h
786-0 renal = test system: 786-0 renal
A498 renal = test system: A498 renal
A549 NSCLC = test system: A549 NSCLC
ACHN renal = test system: ACHN renal
BT-549 breast = test system: BT-549 breast
CAKI-1 renal = test system: CAKI-1 renal
CCRF-CEM leukemia = test system: CCRF-CEM leukemia
COLO 205 colon = test system: COLO 205 colon
DU-145 prostate = test system: DU-145 prostate
EKVX NSCLC = test system: EKVX NSCLC
HCC-2998 colon = test system: HCC-2998 colon
HCT-116 colon = test system: HCT-116 colon
HCT-15 colon = test system: HCT-15 colon
HL-60(TB) leukemia = test system: HL-60(TB) leukemia
HOP-62 NSCLC = test system: HOP-62 NSCLC
HOP-92 NSCLC = test system: HOP-92 NSCLC
HS 578T breast = test system: HS 578T breast
HT29 colon = test system: HT29 colon
IGROV1 ovarian = test system: IGROV1 ovarian
K-562 leukemia = test system: K-562 leukemia
KM12 colon = test system: KM12 colon
LOX IMVI melanoma = test system: LOX IMVI melanoma
M14 melanoma = test system: M14 melanoma
MALME-3M melanoma = test system: MALME-3M melanoma
MCF7 breast = test system: MCF7 breast
MDA-MB-231 breast = test system: MDA-MB-231 breast
MDA-MB-435 = test system: MDA-MB-435
MDA-N = test system: MDA-N
MOLT-4 leukemia = test system: MOLT-4 leukemia
NCI-H226 lung = test system: NCI-H226 lung
NCI-H23 lung = test system: NCI-H23 lung
NCI-H460 lung = test system: NCI-H460 lung
NCI-H522 lung = test system: NCI-H522 lung
NCI/ADR-RES ovarian = test system: NCI/ADR-RES ovarian
OVCAR-3 ovarian = test system: OVCAR-3 ovarian
OVCAR-4 ovarian = test system: OVCAR-4 ovarian
OVCAR-5 ovarian = test system: OVCAR-5 ovarian
OVCAR-8 ovarian = test system: OVCAR-8 ovarian
PC-3 prostate = test system: PC-3 prostate
RPMI-8226 leukemia = test system: RPMI-8226 leukemia
RXF 393 renal = test system: RXF 393 renal
SF-268 CNS = test system: SF-268 CNS
SF-295 CNS = test system: SF-295 CNS
SF-539 CNS = test system: SF-539 CNS
SK-MEL-2 melanoma = test system: SK-MEL-2 melanoma
SK-MEL-28 melanoma = test system: SK-MEL-28 melanoma
SK-MEL-5 melanoma = test system: SK-MEL-5 melanoma
SK-OV-3 ovarian = test system: SK-OV-3 ovarian
SN12C renal = test system: SN12C renal
SNB-19 CNS = test system: SNB-19 CNS
SNB-75 CNS = test system: SNB-75 CNS
SW-620 colon = test system: SW-620 colon
T-47D breast = test system: T-47D breast
TK-10 renal = test system: TK-10 renal
U251 CNS = test system: U251 CNS
UACC-257 melanoma = test system: UACC-257 melanoma
UACC-62 melanoma = test system: UACC-62 melanoma
UO-31 renal = test system: UO-31 renal
SR leukemia = test system: SR leukemia

Measured: TGI

CN(CC(=O)O)CC(=O)O
> 100 µM: 786-0 renal | A498 renal | A549 NSCLC | ACHN renal | BT-549 breast | CAKI-1 renal | CCRF-CEM leukemia | COLO 205 colon | DU-145 prostate | EKVX NSCLC | HCC-2998 colon | HCT-116 colon | HCT-15 colon | HL-60(TB) leukemia | HOP-62 NSCLC | HOP-92 NSCLC | HS 578T breast | HT29 colon | IGROV1 ovarian | K-562 leukemia | KM12 colon | LOX IMVI melanoma | M14 melanoma | MALME-3M melanoma | MCF7 breast | MDA-MB-231 breast | MDA-MB-435 | MDA-N | MOLT-4 leukemia | NCI-H226 lung | NCI-H23 lung | NCI-H460 lung | NCI-H522 lung | NCI/ADR-RES ovarian | OVCAR-3 ovarian | OVCAR-4 ovarian | OVCAR-5 ovarian | OVCAR-8 ovarian | PC-3 prostate | RPMI-8226 leukemia | RXF 393 renal | SF-268 CNS | SF-295 CNS | SF-539 CNS | SK-MEL-2 melanoma | SK-MEL-28 melanoma | SK-MEL-5 melanoma | SK-OV-3 ovarian | SN12C renal | SNB-19 CNS | SNB-75 CNS | SW-620 colon | T-47D breast | TK-10 renal | U251 CNS | UACC-257 melanoma | UACC-62 melanoma | UO-31 renal

O=C(Nc1ccn(C2CC(I)C(COC(c3ccccc3)(c3ccccc3)c3ccccc3)O2)c(=O)n1)c1ccccc1 (stereo unspecified)
13 µM: A498 renal | OVCAR-3 ovarian
67 µM: BT-549 breast
18.4 µM: SF-539 CNS
13.2 µM: HOP-92 NSCLC | RXF 393 renal
14.5 µM: U251 CNS
> 31.6 µM: MCF7 breast
14.9 µM: SK-MEL-5 melanoma
17 µM: RPMI-8226 leukemia
12.6 µM: SN12C renal
13.8 µM: M14 melanoma
12.1 µM: MOLT-4 leukemia
14.6 µM: MDA-N
21.5 µM: A549 NSCLC | ACHN renal | CAKI-1 renal | DU-145 prostate | EKVX NSCLC | HCC-2998 colon | HCT-15 colon | HL-60(TB) leukemia | HS 578T breast | HT29 colon | IGROV1 ovarian | K-562 leukemia | NCI-H23 lung | NCI-H522 lung | SF-295 CNS | SK-OV-3 ovarian | SNB-19 CNS | SW-620 colon | T-47D breast | TK-10 renal
17.3 µM: CCRF-CEM leukemia
2.15 µM: SR leukemia
12.2 µM: HCT-116 colon
16.7 µM: OVCAR-4 ovarian
12.8 µM: COLO 205 colon | NCI-H226 lung | UO-31 renal
13.4 µM: MALME-3M melanoma
9.61 µM: SNB-75 CNS
14.7 µM: LOX IMVI melanoma
15.7 µM: MDA-MB-435
16.2 µM: SK-MEL-28 melanoma
21.2 µM: HOP-62 NSCLC
15.4 µM: UACC-62 melanoma
20.2 µM: NCI/ADR-RES ovarian
15.5 µM: 786-0 renal
14.1 µM: NCI-H460 lung
20.9 µM: PC-3 prostate
> 21.5 µM: OVCAR-5 ovarian
17.9 µM: MDA-MB-231 breast | SF-268 CNS
24 µM: KM12 colon
13.1 µM: OVCAR-8 ovarian
20.4 µM: UACC-257 melanoma

CC(NC(=O)C1CCCN1C(=O)CNC(=O)OC(C)(C)C)C(=O)O (stereo not drawn) (Boc-Gly-Pro-Ala-OH; configuration not given here)
> 100 µM: 786-0 renal | A549 NSCLC | ACHN renal | BT-549 breast | CAKI-1 renal | COLO 205 colon | DU-145 prostate | EKVX NSCLC | HCC-2998 colon | HCT-15 colon | HOP-62 NSCLC | HOP-92 NSCLC | HS 578T breast | HT29 colon | IGROV1 ovarian | K-562 leukemia | KM12 colon | M14 melanoma | MALME-3M melanoma | MCF7 breast | MDA-MB-231 breast | MDA-MB-435 | MDA-N | MOLT-4 leukemia | NCI-H226 lung | NCI-H23 lung | NCI-H460 lung | NCI-H522 lung | NCI/ADR-RES ovarian | OVCAR-3 ovarian | OVCAR-5 ovarian | OVCAR-8 ovarian | PC-3 prostate | RPMI-8226 leukemia | RXF 393 renal | SF-268 CNS | SF-295 CNS | SF-539 CNS | SK-MEL-2 melanoma | SK-MEL-28 melanoma | SK-MEL-5 melanoma | SK-OV-3 ovarian | SN12C renal | SNB-19 CNS | SNB-75 CNS | SR leukemia | SW-620 colon | T-47D breast | TK-10 renal | U251 CNS | UACC-257 melanoma | UACC-62 melanoma | UO-31 renal

CCN(CC)C(=S)/N=C(\SC(=S)N(CC)CC)c1ccccc1
> 100 µM: 786-0 renal | A498 renal | A549 NSCLC | ACHN renal | BT-549 breast | CAKI-1 renal | CCRF-CEM leukemia | EKVX NSCLC | HCC-2998 colon | HCT-15 colon | HOP-92 NSCLC | HS 578T breast | HT29 colon | IGROV1 ovarian | K-562 leukemia | M14 melanoma | MALME-3M melanoma | MCF7 breast | MDA-MB-435 | NCI-H226 lung | NCI-H23 lung | NCI-H460 lung | NCI/ADR-RES ovarian | OVCAR-3 ovarian | OVCAR-4 ovarian | OVCAR-5 ovarian | OVCAR-8 ovarian | PC-3 prostate | RXF 393 renal | SF-268 CNS | SF-295 CNS | SF-539 CNS | SK-MEL-2 melanoma | SK-MEL-28 melanoma | SK-MEL-5 melanoma | SK-OV-3 ovarian | SN12C renal | SNB-19 CNS | SNB-75 CNS | SW-620 colon | T-47D breast | TK-10 renal | U251 CNS | UACC-257 melanoma | UACC-62 melanoma
> 73.2 µM: MDA-N
> 87.9 µM: DU-145 prostate
> 44.1 µM: KM12 colon
> 88.2 µM: UO-31 renal
20.9 µM: HCT-116 colon
> 25.7 µM: MDA-MB-231 breast
3.39 µM: NCI-H522 lung
72.5 µM: COLO 205 colon
36.1 µM: LOX IMVI melanoma
> 74.8 µM: MOLT-4 leukemia
> 96.1 µM: RPMI-8226 leukemia
> 83.2 µM: HOP-62 NSCLC
